Assay results as given in patent publication US8637510B2, “Morpholinothiazoles as alpha 7 positive allosteric modulators” (Janssen Pharmaceutica NV, priority 2009, dated 2014).

How the values were obtained:
[1] = target: T1, human alpha 7-wt nAChR-expressing GH4C1 cells (Homo sapiens, UniProt P36544); assay: Patch-clamp current recording (whole-cell voltage-clamp, PAM type classification); type: cell-based; design: key: Type 0 compounds minimally change the effect size of the current elicited by 1 mM choline.; Type 1 compounds enhance the effect size of the current elicited by 1 mM choline but minimally alter the kinetics of the receptor.; Type 2 compounds enhance the effect size of the current elicited by 1 mM choline while reducing the rate and/or the extent of desensitization.; Type 3 compounds enhance the effect size of the current elicited by 1 mM choline. When tested at higher concentrations up to 10 μM they completely inhibit desensitization; Type 4 compounds allow for an initial desensitization of the receptor followed by a re-opening of the receptor during agonist application; conditions: 1 mM choline
T1 construct: expressed in transfected cells
T1 sequence (P36544 23-502): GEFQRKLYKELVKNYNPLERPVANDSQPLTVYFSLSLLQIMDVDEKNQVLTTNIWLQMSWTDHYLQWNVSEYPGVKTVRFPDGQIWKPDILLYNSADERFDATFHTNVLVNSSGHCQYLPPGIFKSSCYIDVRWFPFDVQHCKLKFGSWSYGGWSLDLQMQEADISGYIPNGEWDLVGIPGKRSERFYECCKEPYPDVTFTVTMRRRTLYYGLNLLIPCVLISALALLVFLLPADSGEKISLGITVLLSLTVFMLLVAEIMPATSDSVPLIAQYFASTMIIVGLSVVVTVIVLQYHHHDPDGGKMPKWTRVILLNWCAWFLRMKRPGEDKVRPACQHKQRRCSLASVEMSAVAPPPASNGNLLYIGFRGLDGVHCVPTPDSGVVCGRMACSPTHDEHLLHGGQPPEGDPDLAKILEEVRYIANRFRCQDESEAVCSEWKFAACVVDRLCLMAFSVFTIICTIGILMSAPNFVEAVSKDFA
Experimental: The compounds of the present invention are classified as type 1-4, based on qualitative kinetic properties, as determined by whole-cell voltage-clamp recordings. This classification is based on the effect of an alpha 7 PAM compound, as described hereinbefore, on the signal elicited by an agonist application. In particular, said agonist is choline at a concentration of 1 mM. In a preferred experimental setting, said alpha 7 PAM compound and choline are simultaneously applied to the cell, as described hereinafter. Desensitization is defined as the closure of the receptor upon activation during the application of the agonist in whole-cell voltage-clamp electrophysiology measurements seen as the reduction of the […] current after initial activation by the agonist.
The definition of the PAM types 1-4 is described hereinafter: • Type 0 compounds minimally change the effect size of the current elicited by 1 mM choline. • Type 1 compounds enhance the effect size of the current elicited by 1 mM choline but minimally alter the kinetics of the receptor. In particular, the rate and the extent of desensitization and of deactivation of the receptor elicited by the agonist is not affected. The compound-modulated response to 1 mM choline, therefore, is close to a linear scaling of the 1 mM choline response in absence of the alpha 7 PAM compound. • Type 2 compounds enhance the effect size of the current elicited by 1 mM choline while reducing the rate and/or the extent of desensitization. Deactivation of the receptor is generally unaffected. • Type 3 compounds enhance the effect size of the current elicited by 1 mM choline. […] Deactivation of the receptor may be slowed down • Type 4 compounds allow for an initial desensitization of the receptor followed by a re-opening of the receptor during agonist application. At low-potency concentrations of the alpha 7 PAM compound, the agonist-induced activation, which is followed by desensitization, can still be separated from the compound-induced re-opening as an initial inward current-maximum. At higher potency concentrations of the alpha 7 PAM compound, the re-opening occurs faster than the closure due to desensitization so that the initial current-maximum disappears.
A compound was considered to have interesting PAM-like activity when the potentiation of the peak current was at least 200% compared to the control choline response (=100%). Such compounds are classified as belonging to a particular PAM type in the Experimental Part. Compounds not meeting the condition are not classified as belonging to a particular PAM-type.
The compounds also have a potentiating effect on the response to choline when measured by whole-cell patch clamp electrophysiology in GH4C1 cells stably over-expressing the human wild-type alpha 7 receptor.
Patch-clamp recording from mammalian cells has provided a powerful means of assessing the function of membrane-bound proteins thought to be subunits of ligand-gated ion channels. Activation of such proteins by endogenous or exogenous ligands cause opening of a pore associated with the receptor through which ions flow down their electrochemical gradient. In the case of the human alpha 7-wt nAChR-expressing GH4C1 recombinant cell line the preferential permeability to calcium of this receptor means that calcium flows into the cell upon activation by ACh, choline and other nicotinic ligands giving rise to a calcium current. Since this receptor rapidly desensitizes in the presence of agonist it is important that an application system is used which is capable of very rapid switching of solutions (<100 ms) to prevent partial or full desensitisation of receptor responses coincident with the time of agonist application. Consequently, a second convenient technique to assess the enhancement of nicotinic efficacy is a patch-clamp recording from human alpha 7-wt nAChR-expressing GH4C1 cells coupled with a rapid-application system. […]

human alpha 7-wt nAChR = target: T2, human alpha 7-wt nAChR (Homo sapiens, UniProt P36544); assay: Ca2+ flux imaging (FDSS) (Protocol B); type: cell-based; conditions: for Emax: read-out: a7-PAM-G_[33]_Eff_Curve_FI % Efficacy; for EC50: potentiation of 100 μM choline, compounds 0.01 μM to 30 μM, read-out: a7-PAM-G_[33]_pEC50 pEC50 (converted)
T2 construct: expressed in transfected cells
T2 sequence (P36544 23-502): as above
Outline: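 PAM activity was measured as FDSS calcium fluorescence in α7-wt nAChR cells loaded with 2 μM Fluo-4AM, with compounds at 0.01–30 μM added alongside or 10 min ahead of sub-maximal 100 μM choline. Peak responses were normalised to choline-only efficacy, and EC50 was taken at half-maximal effect.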

[2] = efficacy of 100 μM choline defined as 100% in the absence of a PAM

Cc1cc(-c2sc(N3CCOC(C)C3)nc2CNC(=O)C(C)C)cc(C)n1 (single isomer, unassigned) [Compound 76, N-[[5-(2,6-dimethyl-4-pyridinyl)-2-[(2R*)-2-methyl-4-morpholinyl]-4-thiazolyl]methyl]-2-methyl-propanamide]
PAM_Type PAM type [1]: 2 | Emax (human alpha 7-wt nAChR; [2]): 611% | EC50 (human alpha 7-wt nAChR): 550 nM | melting point: 189 °C

Cc1cc(-c2sc(N3CCOC(C)C3)nc2CNC(=O)CC2CC2)cc(C)n1 (single isomer, unassigned) [Compound 78, N-[[5-(2,6-dimethyl-4-pyridinyl)-2-[(2S*)-2-methyl-4-morpholinyl]-4-thiazolyl]methyl]-cyclopropaneacetamide]
PAM_Type PAM type [1]: 2 | a7-PAM-G_[33]_Eff_Curve_FI % Efficacy (human alpha 7-wt nAChR; [2]): 919% | EC50 (human alpha 7-wt nAChR): 1170 nM | melting point: 169 °C

Cc1cc(-c2sc(N3C[C@@H](C)O[C@@H](C)C3)nc2CNC(=O)c2cc(C)on2)cc(C)n1 [Compound 3, N-[[2-[(2R,6S)-2,6-dimethyl-4-morpholinyl]-5-(2,6-dimethyl-4-pyridinyl)-4-thiazolyl]methyl]-5-methyl-3-isoxazolecarboxamide]
PAM_Type PAM type [1]: 1 | EC50 (human alpha 7-wt nAChR): 813 nM | melting point: 208 °C

Cc1cc(C(=O)NCc2nc(N3C[C@@H](C)O[C@@H](C)C3)sc2-c2cc(C)nc(C)c2)on1 [Compound 4, N-[[2-[(2R,6S)-2,6-dimethyl-4-morpholinyl]-5-(2,6-dimethyl-4-pyridinyl)-4-thiazolyl]methyl]-3-methyl-5-isoxazolecarboxamide]
PAM_Type PAM type [1]: 2 | Emax (human alpha 7-wt nAChR; [2]): 927% | EC50 (human alpha 7-wt nAChR): 1410 nM | melting point: 184 °C

CCC(=O)NCc1nc(N2C[C@@H](C)O[C@@H](C)C2)sc1-c1cc(C)nc(C)c1 [Compound 39, N-[[2-[(2R,6S)-2,6-dimethyl-4-morpholinyl]-5-(2,6-dimethyl-4-pyridinyl)-4-thiazolyl]methyl]-propanamide]
PAM_Type PAM type [1]: 2 | Emax (human alpha 7-wt nAChR; [2]): 498% | EC50 (human alpha 7-wt nAChR): 871 nM | melting point: 176 °C

COc1cc(-c2sc(N3C[C@@H](C)O[C@@H](C)C3)nc2CNC(=O)c2cc(C)on2)cc(C)n1 [Compound 82, N-[[2-[(2R,6S)-2,6-dimethyl-4-morpholinyl]-5-(2-methoxy-6-methyl-4-pyridinyl)-4-thiazolyl]methyl]-5-methyl-3-isoxazolecarboxamide]
PAM_Type PAM type [1]: 1 | Emax (human alpha 7-wt nAChR; [2]): 459% | EC50 (human alpha 7-wt nAChR): 324 nM | melting point: 203 °C

COc1cc(-c2sc(N3C[C@@H](C)O[C@@H](C)C3)nc2CNC(=O)CC2CC2)cc(C)n1 [Compound 83, N-[[2-[(2R,6S)-2,6-dimethyl-4-morpholinyl]-5-(2-methoxy-6-methyl-4-pyridinyl)-4-thiazolyl]methyl]-cyclopropaneacetamide]
PAM_Type PAM type [1]: 2 | Emax (human alpha 7-wt nAChR; [2]): 584% | EC50 (human alpha 7-wt nAChR): 145 nM | melting point: 171 °C

COc1cc(-c2sc(N3C[C@@H](C)O[C@@H](C)C3)nc2CNC(=O)C2CCC2)cc(C)n1 [Compound 84, N-[[2-[(2R,6S)-2,6-dimethyl-4-morpholinyl]-5-(2-methoxy-6-methyl-4-pyridinyl)-4-thiazolyl]methyl]-cyclobutanecarboxamide]
PAM_Type PAM type [1]: 2 | Emax (human alpha 7-wt nAChR; [2]): 443% | EC50 (human alpha 7-wt nAChR): 102 nM | melting point: 171 °C

COc1cc(-c2sc(N3C[C@@H](C)O[C@@H](C)C3)nc2CNC(=O)c2cccc(F)c2)cc(C)n1 [Compound 85, N-[[2-[(2R,6S)-2,6-dimethyl-4-morpholinyl]-5-(2-methoxy-6-methyl-4-pyridinyl)-4-thiazolyl]methyl]-3-fluoro-benzamide]
PAM_Type PAM type [1]: 0 | Emax (human alpha 7-wt nAChR; [2]): 320% | EC50 (human alpha 7-wt nAChR): 708 nM | melting point: 172 °C

Cc1cc(-c2sc(N3C[C@@H](C)O[C@@H](C)C3)nc2CNC(=O)c2cc(C)on2)ccn1 [Compound 87, N-[[2-[(2R,6S)-2,6-dimethyl-4-morpholinyl]-5-(2-methyl-4-pyridinyl)-4-thiazolyl]methyl]-5-methyl-3-isoxazolecarboxamide]
PAM_Type PAM type [1]: 2 | Emax (human alpha 7-wt nAChR; [2]): 646% | EC50 (human alpha 7-wt nAChR): 813 nM | melting point: 177 °C

Cc1cc(-c2sc(N3C[C@@H](C)O[C@@H](C)C3)nc2CNC(=O)CC2CC2)ccn1 [Compound 88, N-[[2-[(2R,6S)-2,6-dimethyl-4-morpholinyl]-5-(2-methyl-4-pyridinyl)-4-thiazolyl]methyl]-cyclopropaneacetamide]
PAM_Type PAM type [1]: 2 | Emax (human alpha 7-wt nAChR; [2]): 736% | EC50 (human alpha 7-wt nAChR): 562 nM | melting point: 177 °C

Cc1cc(-c2sc(N3C[C@@H](C)O[C@@H](C)C3)nc2CNC(=O)c2ccccc2Cl)ccn1 [Compound 90, 2-chloro-N-[[2-[(2R,6S)-2,6-dimethyl-4-morpholinyl]-5-(2-methyl-4-pyridinyl)-4-thiazolyl]methyl]-benzamide]
PAM_Type PAM type [1]: 2 | Emax (human alpha 7-wt nAChR; [2]): 491% | EC50 (human alpha 7-wt nAChR): 490 nM | melting point: 155 °C

Cc1ccc(-c2sc(N3C[C@@H](C)O[C@@H](C)C3)nc2CNC(=O)c2cc(C)on2)cn1 [Compound 118, N-[[2-[(2R,6S)-2,6-dimethyl-4-morpholinyl]-5-(6-methyl-3-pyridinyl)-4-thiazolyl]methyl]-5-methyl-3-isoxazolecarboxamide]
PAM_Type PAM type [1]: 0 | Emax (human alpha 7-wt nAChR; [2]): 430% | EC50 (human alpha 7-wt nAChR): 1860 nM | melting point: 148 °C

Cc1cc(-c2sc(N3CCOC(C)(C)C3)nc2CNC(=O)CC2CC2)cc(C)n1 [Compound 156, N-[[2-(2,2-dimethyl-4-morpholinyl)-5-(2,6-dimethyl-4-pyridinyl)-4-thiazolyl]methyl]-cyclopropaneacetamide]
PAM_Type PAM type [1]: 0 | EC50 (human alpha 7-wt nAChR): 1260 nM | melting point: 135 °C

Cc1cc(-c2sc(N3CCOC(C)(C)C3)nc2CNC(=O)c2ccc(F)cc2C)cc(C)n1 [Compound 157, N-[[2-(2,2-dimethyl-4-morpholinyl)-5-(2,6-dimethyl-4-pyridinyl)-4-thiazolyl]methyl]-4-fluoro-2-methyl-benzamide]
PAM_Type PAM type [1]: 2 | EC50 (human alpha 7-wt nAChR): 224 nM | melting point: 197 °C

Cc1cc(-c2sc(N3C[C@@H](C)O[C@@H](C)C3)nc2CNC(=O)c2ncsc2C)cc(C)n1 [Compound 178, N-[[2-[(2R,6S)-2,6-dimethyl-4-morpholinyl]-5-(2,6-dimethyl-4-pyridinyl)-4-thiazolyl]methyl]-5-methyl-4-thiazolecarboxamide]
PAM_Type PAM type [1]: 0 | Emax (human alpha 7-wt nAChR; [2]): 733% | EC50 (human alpha 7-wt nAChR): 501 nM | melting point: 180 °C

Cc1cc(-c2sc(N3CCOC(C(F)(F)F)C3)nc2CNC(=O)CC2CC2)cc(C)n1 (stereo not shown) [Compound 190, N-[[5-(2,6-dimethyl-4-pyridinyl)-2-[2-(trifluoromethyl)-4-morpholinyl]-4-thiazolyl]methyl]-cyclopropaneacetamide]
PAM_Type PAM type [1]: 2 | EC50 (human alpha 7-wt nAChR): 70.8 nM | melting point: 168 °C
